Legend:
Type in all cases: cell-based, human
WM 266-4 cells [1] = test: Apoptosis (Annexin V-Cy3 kit) of melanoma cells treated with peptides; conditions: for Apoptosis, result in words (summary of Table 2): 10 μM; for Apoptosis 7 days/%: peptide 10 μM
Experimental: (§1) Human melanoma cell lines SK-MEL-28 and WM-266-4 were obtained from the American Type Culture Collection (ATCC; Manassas, Va.; SK-MEL-28 deposited by T. Takehashi and subject to release terms set by The Memorial Sloan-Kettering Cancer Center; WM-266-4 deposited by M. Herlyn). Cells were cultured according to recommendations of ATCC (DMEM, 10% FCS, penicillin+streptomycin) and used in experiments after two passages in the laboratory. Cells were grown in 24 well plates, each treatment in triplicates. Cells were plated 16 hours prior treatments started. Peptides were added to the media, and media was changed every day during 7 day experiment. CPP concentration was 10 μM.
(§2) Apoptosis was analyzed using Biovision Annexin V-Cy3 Apoptosis Kit according to manufacturer's protocols.
(§3) Effects of peptide drug candidates BAF57 P12 and TRAP100 P05 on cell proliferation and apoptosis were analyzed using human melanoma cell lines SK-MEL-28 and WM 266-4. Therapeutic peptides were added at a concentration of 10 μM directly to culture media. Internalization and translocation of the therapeutic peptide(s) into the cell nucleus was studied using fluorescein labeled peptides. […] As controls we used scrambled peptides. […] Simultaneous incubation of melanoma cells with both peptides caused complete inhibition of proliferation and induction of apoptosis in almost all treated cells.

SK-MEL-28 cells [2] = test: as above; conditions: for Apoptosis, result in words (summary of Table 2) / Apoptosis 7 days/%: SK-MEL-28; for Apoptosis, result in words (summary of Table 2): 10 μM; for Apoptosis 7 days/%: peptide 10 μM; for Apoptosis of melanoma cells in vitro, result in words (library screening): screening of peptide libraries using SK-MEL-28
Experimental: as §1, §2, §3

WM 266-4 cells [3] = test: Cell proliferation (cell counting) of melanoma cells treated with peptides; conditions: for Proliferation, result in words (summary of Table 2): 10 μM; for Cell Count 7 days: peptide 10 μM in media, start count 10, 7 days
Experimental: as §1
(§4) For cell counting, cells were trypsinized (0.25% Trypsin, 2 mM EDTA) in Ca+2, Mg+2 free PBS. Cells were precipitated and resuspended in 100 μl of PBS, and 5 μl were removed for counting
as §3

SK-MEL-28 cells [4] = test: as above; conditions: for Proliferation, result in words (summary of Table 2) / Cell Count 7 days: SK-MEL-28; for Proliferation, result in words (summary of Table 2): 10 μM; for Cell Count 7 days: peptide 10 μM in media, start count 10; for Growth of melanoma cells in vitro, result in words (library screening): screening of peptide libraries using SK-MEL-28
Experimental: as §1, §4, §3

Row | Sequence | Apoptosis, result in words (summary of Table 2) (WM 266-4 cells [1]) | Apoptosis 7 days/% (WM 266-4 cells [1]) | Apoptosis, result in words (summary of Table 2) (SK-MEL-28 cells [2]) | Apoptosis 7 days/% (SK-MEL-28 cells [2]) | Apoptosis of melanoma cells in vitro, result in words (library screening) (SK-MEL-28 cells [2]) | Proliferation, result in words (summary of Table 2) (WM 266-4 cells [3]) | Cell Count 7 days (WM 266-4 cells [3]) | Proliferation, result in words (summary of Table 2) (SK-MEL-28 cells [4]) | Cell Count 7 days (SK-MEL-28 cells [4]) | Growth of melanoma cells in vitro, result in words (library screening) (SK-MEL-28 cells [4])
1 | PKKRKVRRRRRRRNDRLSDGDSKYSQTSHKLVQLL (listed as Homo sapiens) [BAF57 P12, NLS-CPP-interfering peptide targeting chromatin modifying complex containing cancer specific isoform of BAF57] | induce apoptosis | 59% | induce apoptosis | 65% | stimulate apoptosis | suppress significantly proliferation | 17 | suppress significantly proliferation | 16 | inhibit growth of melanoma cells
2 | PKKRKVRRRRRRRPQMQQNVFQYPGAGMVPQGEANF (listed as Homo sapiens) [TRAP100 P05, NLS-CPP-interfering peptide targeting mediator complex containing cancer specific isoform of MED24/TRAP100] | induce apoptosis | 78% | induce apoptosis | 78% | stimulate apoptosis | suppress significantly proliferation | 15 | suppress significantly proliferation | 12 | inhibit growth of melanoma cells

Reference: patent publication US7973135B2, “Compositions and methods for targeting cancer-specific transcription complexes” (Oncotx, Inc., priority 2006, dated 2011)
